Measurements: patent EP0562731A1, “Substituted pyridinesulfonamide compounds or their salts, process for preparing the same, and herbicides containing the same” (ISHIHARA SANGYO KAISHA, Ltd., priority 1992, dated 1993)

Columns and labels:
Test in all cases: Test Example 1: foliar application pot test, visual growth control rating
Assay type in all cases: in vivo
Design in all cases: key: 1: the same as in an untreated plot; 10: perfect growth control
[1] = system: large crabgrass (Digitaria adscendens); details: wettable powder, observed 20 to 31 days after application
Text: (§1) 1/1,500 are [are (a) = 100 m²] pots were filled with upland farming soil, which in the pots was then sown with a variety of plants. The plants grown will be enumerated below.
(§2) When each plant reached a given growth stage (a 1.2- to 3.0-leaf stage for rice, primary leaf to a 0.7-leaf stage for soybean, 2.1- to 3.6-leaf stage for corn, cotyledon to 0.7-leaf stage for cotton, 2.0- to 3.0-leaf stage for wheat, 0.3- to 3.4-leaf stage for cocklebur, 0.3- to 1.6-leaf stage for morning glory, 0.1- to 1.3-leaf stage for prickly sida, 0.1- to 1.3-leaf stage for slender amaranth, 1.5- to 3.2-leaf stage for barnyard glass, and 1.2- to 3.0-leaf stage for large crabgrass), a predetermined amount of the herbicide of the present invention in the form of a wettable powder, weighed out, diluted with 5 ℓ/a of water and admixed with 0.2 or 0.1 vol%, based on the resulting composition, of an agricultural spreader, was foliarly applied to the plant with a small spray gun. The progress of growth of the plant was visually observed 20 to 31 days after the foliar application to evaluate the degree of growth control according to 10 ratings (1: the same as in an untreated plot - 10: perfect growth control).

soybean (Glycine max) = details: wettable powder, observed 20 to 31 days after application
Text: as §1, §2

wheat (Triticum) = details: wettable powder, observed 20 to 31 days after application
Text: as §1, §2

corn (Zea mays) = details: 1.25 g/a active ingredient, wettable powder, observed 20 to 31 days after application
Text: as §1, §2

[2] = system: barnyard grass (Echinochloa crus-galli); details: 1.25 g/a active ingredient, wettable powder, observed 20 to 31 days after application
Text: as §1, §2

[3] = system: prickly sida (Sida spinosa); details: 1.25 g/a active ingredient, wettable powder, observed 20 to 31 days after application
Text: as §1, §2

rice (Oryza sativa) = details: 1.25 g/a active ingredient, wettable powder, observed 20 to 31 days after application
Text: as §1, §2

[4] = system: slender amaranth (Amaranthus viridis); details: 1.25 g/a active ingredient, wettable powder, observed 20 to 31 days after application
Text: as §1, §2

[5] = system: cocklebur (Xanthium strumarium); details: 1.25 g/a active ingredient, wettable powder, observed 20 to 31 days after application
Text: as §1, §2

[6] = system: morning glory (Ipomoea purpurea); details: 1.25 g/a active ingredient, wettable powder, observed 20 to 31 days after application
Text: as §1, §2

SMILES	degree of growth control, DI ([1]; 0.31 g/a active ingredient)	degree of growth control, DI ([1]; 1.25 g/a active ingredient)	degree of growth control, GL (soybean (Glycine max); 0.31 g/a active ingredient)	degree of growth control, GL (soybean (Glycine max); 1.25 g/a active ingredient)	degree of growth control, TR (wheat (Triticum); 0.31 g/a active ingredient)	degree of growth control, TR (wheat (Triticum); 1.25 g/a active ingredient)	degree of growth control, ZE (corn (Zea mays))	degree of growth control, EC [2]	degree of growth control, SI [3]	degree of growth control, OR (rice (Oryza sativa))	degree of growth control, AM [4]	degree of growth control, XA [5]	degree of growth control, IP [6]
CCN(c1cccc(S(=O)(=O)NC(=O)Nc2nc(C)nc(OC)n2)n1)S(=O)(=O)C(C)F (racemic) [compound 58]	7	7	1	1	2	2	–	–	–	–	–	–	–
CCC(C)N(c1cccc(S(=O)(=O)NC(=O)Nc2nc(C)nc(OC)n2)n1)S(=O)(=O)C(C)CC (racemic) [compound 81]	–	3	–	6	–	2	2	6	2	5	3	9	6
CCCN(c1cccc(S(=O)(=O)NC(=O)Nc2nc(C)nc(OC)n2)n1)S(=O)(=O)CC [Compound No. 3]	–	6	–	3	–	4	8	9	6	6	10	8	5
CCCCN(c1cccc(S(=O)(=O)NC(=O)Nc2nc(C)nc(OC)n2)n1)S(=O)(=O)C(C)C [Compound No. 4]	–	3	–	4	–	2	10	7	6	8	9	9	6
CCS(=O)(=O)N(c1cccc(S(=O)(=O)NC(=O)Nc2nc(C)nc(OC)n2)n1)C(C)C [compound 6]	–	4	–	3	–	3	10	6	6	6	9	7	8
CCS(=O)(=O)N(c1cccc(S(=O)(=O)NC(=O)Nc2nc(OC)nc(OC)n2)n1)C(C)C [compound 7]	–	2	–	3	–	2	10	2	3	3	9	7	6
CCCN(c1cccc(S(=O)(=O)NC(=O)Nc2nc(OC)nc(OC)n2)n1)S(=O)(=O)CC [compound 8]	–	5	–	4	–	3	5	5	3	3	7	6	4
CCCCN(c1cccc(S(=O)(=O)NC(=O)Nc2nc(C)nc(OC)n2)n1)S(C)(=O)=O [compound 32]	–	6	–	3	–	2	3	3	4	3	6	6	5
COc1nc(C)nc(NC(=O)NS(=O)(=O)c2cccc(N(CC(C)C)S(C)(=O)=O)n2)n1 [compound 33]	–	6	–	3	–	3	2	3	3	6	6	3	4
CCN(c1cccc(S(=O)(=O)NC(=O)Nc2nc(C)nc(OC)n2)n1)S(=O)(=O)CC [compound 37]	–	2	–	2	–	1	3	4	3	2	9	4	3
CCCS(=O)(=O)N(C)c1cccc(S(=O)(=O)NC(=O)Nc2nc(C)nc(OC)n2)n1 [compound 39]	–	4	–	4	–	3	3	3	3	3	9	5	5
CCCCS(=O)(=O)N(CCC)c1cccc(S(=O)(=O)NC(=O)Nc2nc(C)nc(OC)n2)n1 [compound 42]	–	5	–	4	–	4	3	3	3	6	10	6	4
CCCCN(c1cccc(S(=O)(=O)NC(=O)Nc2nc(C)nc(OC)n2)n1)S(=O)(=O)CCCC [compound 43]	–	6	–	4	–	3	3	3	3	2	5	6	3
CCN(c1cccc(S(=O)(=O)NC(=O)Nc2nc(C)nc(OC)n2)n1)S(=O)(=O)CCl [compound 60]	–	4	–	4	–	2	5	6	5	6	9	9	7
